Laboratory results as given in patent US8455440B2, “Combination anticoagulant therapy with a compound that acts as a factor Xa inhibitor” (Millennium Pharmaceuticals, Inc., priority 2007, dated 2013).

Legend:
thrombin generation = test: Thrombin generation inhibition assay; assay type: biochemical, human
Method: After 10 min, the reaction was stopped by addition of EGTA. A chromogenic peptide substrate (Spectrozyme TH, American Diagnostica) specific for thrombin was added to measure the activity of thrombin generated during the tissue factor treatment period. After allowing the substrate cleavage reaction to proceed for 2 min, the samples were quenched with glacial acetic acid. The plasma samples were analyzed in triplicate in a 96-well plate format. […] The control samples were used to establish plate acceptance criteria. Absorbance of each sample well was measured at 405 nm.
Thrombin generation (% Inhibition) was calculated from absorbance at 405 nm (A405) by the following equation: %Inhibition=(1−A405/Baseline)×100.
Since thrombin generation inhibition values were reported as a percentage there is no lower limit of quantitation in this assay.

[1] = test system: clotting times (prothrombin time, PT and activated partial thromboplastin times, aPTT); test: Ex vivo clotting times (PT, aPTT) in the rat thrombosis model
Method: (§1) In this experiment, the ability of Compound A to maintain vessel patency under arterial flow conditions in ferric chloride induced thrombosis in rat carotid artery is compared to that achieved by clopidogrel. Compound A was administered by intravenous infusions and clopidogrel was dosed orally for three days. Ex vivo platelet aggregation induced by 10 μM ADP and clotting times (prothrombin time, PT and activated partial thromboplastin times, aPTT) were measured over the experimental time course (90 min) in all animals.
as §1, with “The combination effect of an anticoagulant and anti-platelet agent, aspirin, was investigated in an in vivo model of thrombosis. […] In” for “In”, “aspirin.” for “clopidogrel.”, “aspirin” for “clopidogrel”, “administered as an intravenous bolus approximately 30 min prior to the start of the experiment.” for “dosed orally for three days.”, “μg/mL of collagen” for “μM ADP”

[2] = test system: ADP induced platelet aggregation; test: Ex vivo platelet aggregation induced by 10 μM ADP; assay type: in vivo; conditions: Rattus norvegicus, read-out: % inhibition of platelet aggregation
Method: as §1
This level of platelet inhibition is approximately equivalent to that attained by clopidogrel's effect on human platelets at the therapeutic dose in clinical use (75 mg per day). […] Time to occlusion was measured in animals that had vessel occlusion.

[3] = test system: venous thromboembolism (VTE); test: Prospective randomized trial for prevention of venous thromboembolic events after total knee replacement; conditions: for VTE %: 10-14 days
Description: Safety endpoints included the incidence of major and clinically significant nonmajor bleeds through the day after venography. All efficacy and bleeding endpoints were adjudicated by a blinded, independent central adjudication committee.

Interleukin 6 = test: Ex vivo cytokine release in human whole blood: interleukin 6; assay type: cell-based; conditions: for fold change of Interleukin 6 release: combination with Aspirin (0 nM = 1)
Method: An ex vivo assay system of human cytokine release was used to test whether inhibition of factor Xa should augment the effect of reduction of inflammation elicited by standard anti-inflammatory drugs, such as aspirin.
Following addition of Compound A (50 to 500 nM) to the blood samples, control and treated samples were activated by addition of collagen (Chronolog, 4 μg/mL) and gently rotated at 37° C. for 45 min. At the end of the activation period, blood samples were centrifuged at 13,000 rpm (15,000 g) for 5 min in an Eppendorf 5415G centrifuge. Plasma was removed, treated with protease inhibitor cocktail (Roche) and stored frozen at −80° C. Cytokines released from the blood cells were quantitated in a Multiplexed Biomarker Immunoassay for Luminex Instrumentation (Millipore USA). […] For example, in the plasma samples from six donors, the mean amount of interleukin 4 was 28.4 pg/mL in the untreated control and 26.8 to 29.4 pg/mL in the Compound A treated samples. […] Thus in this ex vivo system Compound A was capable of providing additional beneficial effect over a widely used anti-inflammatory agent.

Interleukin 8 = test: Ex vivo cytokine release in human whole blood: interleukin 8; assay type: cell-based
p-glycoprotein = p-glycoprotein (Homo sapiens, UniProt P08183); test: In vitro evaluations of p-glycoprotein substrate; assay type: in vitro ADME
[4] = test system: Thrombosis on mouse mesenteric arteries; test: FeCl3 thrombosis on mouse mesenteric arteries; assay type: in vivo, mice; conditions: for Mean time to occlusion: P2Y12^+/− mice, 10 mg/kg
Description: Commonly used P2Y12 antagonists such as clopidogrel are prescribed at doses that block 40-50% of the P2Y12 receptors on platelets of treated patients. It has been shown that P2Y12^+/− mice which express ˜50% of the receptor on their platelets compared to wild type control (P2Y12^+/+), display an intermediate thrombosis phenotype between wild type and mice completely deficient in P2Y12 (P2Y12^−/−). (Andre, P., et al., J Clin Invest, 2003. 112(3):398-406). P2Y12 regulates platelet adhesion/activation, thrombus growth, and thrombus stability in injured arteries. The effect of Compound A was studied in a thrombosis model with P2Y12^+/− mice to effectively mimic the combination of dual dosing of factor Xa inhibitor and P2Y12 antagonist in humans.
Thrombosis on mouse mesenteric arteries (shear rate 1000-1300 s^−1) was performed and recorded as previously described (Andre, P., et al., J Clin Invest, 2003. 112(3):398-406). Platelets were labeled in situ using rhodamine 6G (0.2 mg/mL) and administered through the tail vein 10 min before visualization of the arteries. Vessel-wall injury was triggered by a 1×1-mm filter paper saturated with a 10% FeCl3 solution. After 5 minutes, the filter paper was removed and mesenteric arteries rinsed with warmed saline (37° C.). Platelet vessel-wall interactions were recorded for 40 additional minutes or until full occlusion occurred and persisted for more than 40 seconds. C57Bl6J mice (wild type control or P2Y12^+/−) were orally gavaged with vehicle control, compound A (2, 4, 10 mg/kg) two hours prior to vascular injury. Thrombosis was analyzed in real time using Simple PCI software. The fluorescence intensity was recorded at a rate of 2 Hz for 40 minutes and plotted over time. Time to occlusion (cessation of blood flow) was analyzed. Plasma concentrations of Compound A were determined on blood collected 2 min post-occlusion or 42 min after start of vascular injury.

[5] = Compound A 0.03 μM, aspirin 3 mg/kg, or both
[6] = Compound A added to blood samples from donors under aspirin therapy
[7] = addition of Compound A to whole blood of aspirin treated donors prior to collagen activation
[8] = wild type mice, 10 mg/kg oral gavage

p-glycoprotein, sequence (P08183 whole entry): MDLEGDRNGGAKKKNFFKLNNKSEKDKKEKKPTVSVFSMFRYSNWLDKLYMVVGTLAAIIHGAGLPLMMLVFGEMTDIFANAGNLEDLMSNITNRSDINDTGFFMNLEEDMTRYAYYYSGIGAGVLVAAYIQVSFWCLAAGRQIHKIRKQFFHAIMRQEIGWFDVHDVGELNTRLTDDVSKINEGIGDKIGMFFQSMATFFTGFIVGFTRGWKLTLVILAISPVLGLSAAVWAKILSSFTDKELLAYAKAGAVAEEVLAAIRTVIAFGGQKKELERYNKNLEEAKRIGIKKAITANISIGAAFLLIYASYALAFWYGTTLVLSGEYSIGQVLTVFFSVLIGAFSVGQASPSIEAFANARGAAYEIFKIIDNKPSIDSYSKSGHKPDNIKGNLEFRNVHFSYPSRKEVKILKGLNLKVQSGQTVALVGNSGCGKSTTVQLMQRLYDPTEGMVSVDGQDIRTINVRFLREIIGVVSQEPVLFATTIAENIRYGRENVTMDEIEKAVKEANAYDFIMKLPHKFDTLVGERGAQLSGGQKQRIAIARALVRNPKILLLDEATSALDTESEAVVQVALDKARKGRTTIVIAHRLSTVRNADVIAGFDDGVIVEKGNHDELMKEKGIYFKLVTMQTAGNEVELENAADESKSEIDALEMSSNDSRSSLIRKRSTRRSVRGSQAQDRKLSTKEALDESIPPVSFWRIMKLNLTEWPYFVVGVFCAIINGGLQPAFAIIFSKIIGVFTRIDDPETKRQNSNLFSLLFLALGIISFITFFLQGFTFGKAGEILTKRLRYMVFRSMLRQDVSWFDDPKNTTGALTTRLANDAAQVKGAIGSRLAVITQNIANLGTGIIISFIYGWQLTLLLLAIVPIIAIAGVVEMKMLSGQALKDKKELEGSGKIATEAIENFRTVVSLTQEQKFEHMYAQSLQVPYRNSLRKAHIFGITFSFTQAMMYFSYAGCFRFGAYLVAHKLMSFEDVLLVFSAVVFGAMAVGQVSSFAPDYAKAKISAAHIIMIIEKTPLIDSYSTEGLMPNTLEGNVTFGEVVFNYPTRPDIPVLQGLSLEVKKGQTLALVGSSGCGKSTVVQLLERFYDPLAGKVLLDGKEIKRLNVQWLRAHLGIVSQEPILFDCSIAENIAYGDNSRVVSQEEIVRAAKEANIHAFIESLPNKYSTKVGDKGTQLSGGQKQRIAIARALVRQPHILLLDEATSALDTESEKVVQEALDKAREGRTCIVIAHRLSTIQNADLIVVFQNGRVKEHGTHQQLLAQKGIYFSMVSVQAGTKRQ

COc1ccc(NC(=O)c2ccc(C(=N)N(C)C)cc2)c(C(=O)Nc2ccc(Cl)cn2)c1 [Compound A, [2-({4-[(dimethylamino)iminomethyl]phenyl}carbonylamino)-5-methoxyphenyl]-N-(5-chloro(2-pyridyl))carboxamide] was tested, and the “correlation between Compound A plasma concentration and inhibition of thrombin generation” value (thrombin generation; plasma of healthy volunteers, single and multiple ascending doses (FIG. 1, FIG. 2)) was “good correlation”, the “effect on inhibition of thrombin generation” value (thrombin generation; total knee replacement patients, 15 mg or 40 mg oral twice a day) was “dose- and concentration-dependent effect” and the PT ratio ([1]; 0.03 μM Compound A) was 1.08. For the same compound, the PT ratio ([1]; 0.1 μM Compound A) was 1.19, the PT ratio ([1]; 0.3 μM Compound A) was 1.33 and the “APTT Ratio” value [1, 5] was 1.08. The “PT ratio” value [1, 5] was 1.07, the “change in PT” value ([1]; therapeutic dose of the single agent) was 33% and the inhibition at 0.03 µM [2] was -2%. The inhibition at 0.1 µM [2] was 4%, the inhibition at 0.3 µM [2] was 0.8% and the “Clinical significant nonmajor bleeds %” value ([3]; Compound A 15 mg bid) was 0%. For the same compound, the “Major Bleeds %” value ([3]; Compound A 15 mg bid) was 0%, the VTE % ([3]; Compound A 15 mg bid oral, n = 69) was 20% and the “Clinical significant nonmajor bleeds %” value ([3]; Compound A 40 mg bid) was 2.4%. The “Major Bleeds %” value ([3]; Compound A 40 mg bid) was 0%, the VTE % ([3]; Compound A 40 mg bid oral, n = 65) was 15% and the “fold change of Interleukin 6 release” value (Interleukin 6; 50 nM Compound A) was 1.01. The “fold change of Interleukin 6 release” value (Interleukin 6; 200 nM Compound A) was 0.96, the “fold change of Interleukin 6 release” value (Interleukin 6; 500 nM Compound A) was 0.87 and the “reduction in the levels of released interleukin 6” value (Interleukin 6; [6]) was 25%. For the same compound, the “further reduction of interleukin 6” value (Interleukin 6; [7]) was 16%, the “reduction in the levels of released interleukin 8” value (Interleukin 8; [6]) was 44% and the “further reduction of interleukin 8” value (Interleukin 8; [7]) was 18%. For the same compound, the p-glycoprotein substrate (p-glycoprotein) was “substrate of p-glycoprotein”, the “plasma concentration sufficient to prevent vascular occlusion” value ([4]; P2Y12^+/− animals) was “more than 76 ng/mL” and the time to occlusion ([4]; P2Y12^+/− mice with Compound A (756.7 seconds without)) was “over 2100 seconds”. The “Mean time to occlusion” value ([4]; Experiment 1) was 2143 s, the “Mean time to occlusion” value ([4]; Experiment 2) was 2399 s and the “Mean time to occlusion” value ([4]; Experiment 3) was 2305 s. For the same compound, the “circulating plasma concentration that prevented vascular occlusion” value ([4]; wild type animals) was “more than 1000 ng/mL”, the “time for appearance of first thrombus” value [4, 8] was “significantly delayed” and the time to occlusion [4, 8] was “significantly delayed”. The antithrombotic effect ([4]; wild type mice, 2 and 4 mg/kg oral gavage two hours prior to injury) was “non-effective”.
